How the values were obtained:
[1] = tested on: HCV replicon cells; test: HCV replicon assay (FRET or luciferase readout); assay type: cell-based; conditions: Table 1
Description: FRET Assay Preparation. To perform the HCV FRET screening assay, 96-well cell culture plates were used. The FRET peptide (Anaspec, Inc.) (Taliani et al., Anal. Biochem. 1996, 240, 60-67) contains a fluorescence donor, EDANS, near one end of the peptide and an acceptor, DABCYL, near the other end. The fluorescence of the peptide is quenched by […] resonance energy transfer (RET) between the donor and the acceptor, but as the NS3 protease cleaves the peptide the products are released from RET quenching and the fluorescence of the donor becomes apparent. The assay reagent was made as follows: 5× cell Luciferase cell culture lysis reagent from Promega (#E153A) diluted to 1× with dH2O, NaCl added to 150 mM final, the FRET peptide diluted to 20 μM final from a 2 mM stock.
To prepare plates, HCV replicon cells, with or without a Renilla luciferase reporter gene, were trypsinized and placed into each well of a 96-well plate with titrated test compounds added in columns 3 through 12; columns 1 and 2 contained a control compound (HCV protease inhibitor), and the bottom row contained cells without compound. The plates were then placed in a CO2 incubator at 37° C.
Assays. Subsequent to addition of the test compounds described above (FRET Assay Preparation), at various times the plate was removed and Alamar blue solution (Trek Diagnostics, #00-100) was added per well as a measure of cellular toxicity. After reading in a Cytoflour 4000 instrument (PE Biosystems), plates were rinsed with PBS and then used for FRET assay by the addition of 30 ul of the FRET peptide assay reagent described above (FRET Assay Preparation) per well. The plate was then placed into the Cytoflour 4000 instrument which had been set to 340 excite/490 emission, automatic mode for 20 cycles and the plate read in a kinetic mode. Typically, the signal to noise using an endpoint analysis after the reads was at least three-fold. Alternatively, after Alamar blue reading, plates were rinsed with PBS, 50 ul of DMEM (high glucose) without phenol red was added and plates were then used for luciferase assay using the Promega Dual-Glo Luciferase Assay System.
Compound analysis was determined by quantification of the relative HCV replicon inhibition and the relative cytotoxicity values. To calculate cytoxicity values, the average Alamar Blue fluorescence signals from the control wells were set as 100% non-toxic. The individual signals in each of the compound test wells were then divided by the average control signal and multiplied by 100% to determine […]. To calculate the HCV replicon inhibition values, an average background value was obtained from the two wells containing the highest amount of HCV protease inhibitor at the end of the assay period. These numbers were similar to those obtained from naïve Huh-7 cells.
The background numbers were then subtracted from the average signal obtained from the control wells and this number was used as 100% activity. The individual signals in each of the compound test wells were then divided by the averaged control values after background subtraction and multiplied by 100% to determine percent activity. EC50 values for a protease inhibitor titration were calculated as the concentration which caused a 50% reduction in FRET or luciferase activity. The two numbers generated for the compound plate, percent cytoxicity and percent activity were used to determine compounds of interest for further analysis.

[2] = target: T1, HCV NS5B RdRp genotype 1b (Hepatitis C virus genotype 1b, UniProt Q9WMX2); test: HCV NS5B RdRp enzyme assay (standard / modified); assay type: biochemical; conditions: Table 1; HCV NS5B genotype 1b
T1 construct: The protein was expressed with an 18 amino acid C-terminal truncation to enhance the solubility; made in house; host or cells: E. coli BL21(DE3), pET21a vector
Description: HCV NS5B RdRp cloning, expression, and purification. The cDNA encoding the NS5B protein of HCV, genotype 1b, was cloned into the pET21a expression vector. The protein was expressed with an 18 amino acid C-terminal truncation to enhance the solubility. The E. coli competent cell line BL21(DE3) was used for expression of the protein. Cultures were grown at 37° C. for ˜4 hours until the cultures reached an optical density of 2.0 at 600 nm. The cultures were cooled to 20° C. and induced with 1 mM IPTG. Fresh ampicillin was added to a final concentration of 50 μg/ml and the cells were grown overnight at 20° C.
Cell pellets (3 L) were lysed for purification to yield 15-24 mgs of purified NS5B. The lysis buffer consisted of 20 mM Tris-HCl, pH 7.4, 500 mM NaCl, 0.5% triton X-100, 1 mM DTT, 1 mM EDTA, 20% glycerol, 0.5 mg/ml lysozyme, 10 mM MgCl2, 15 ug/ml deoxyribonuclease I, and Complete™ protease inhibitor tablets (Roche). After addition of the lysis buffer, frozen cell pellets were resuspended using a tissue homogenizer. To reduce the viscosity of the sample, aliquots of the lysate were sonicated on ice using a microtip attached to a Branson sonicator. The sonicated lysate was centrifuged at 100,000×g for 1 hr at 4° C. and filtered through a 0.2 μm filter unit (Corning).
The protein was purified using three sequential chromatography steps: Heparin sepharose CL-6B, polyU sepharose 4B, and Hitrap SP sepharose (Pharmacia). The chromatography buffers were identical to the lysis buffer but contained no lysozyme, deoxyribonuclease I, MgCl2 or protease inhibitor and the NaCl concentration of the buffer was adjusted according to the requirements for charging the protein onto the column. Each column was eluted with a NaCl gradient which varied in length from 5-50 column volumes depending on the column type. After the final chromatography step, the resulting purity of the enzyme is >90% based on SDS-PAGE analysis. The enzyme was aliquoted and stored at −80° C.
Standard HCV NS5B RdRp enzyme assay. HCV RdRp genotype 1b assays were run in a final volume of 60 μl in 96 well plates (Costar 3912). The assay buffer is composed of 20 mM Hepes, pH 7.5, 2.5 mM KCl, 2.5 mM MgCl2, 1 mM DTT, 1.6 U RNAse inhibitor (Promega N2515), 0.1 mg/ml BSA (Promega R3961), and 2% glycerol. All compounds were serially diluted (3-fold) in DMSO and diluted further in water such that the final concentration of DMSO in the assay was 2%. HCV RdRp genotype 1b enzyme was used at a final concentration of 28 nM. A polyA template was used at 6 nM, and a biotinylated oligo-dT12 primer was used at 180 nM final concentration. Template was obtained commercially (Amersham 27-4110). Biotinylated primer was prepared by Sigma Genosys. 3H-UTP was used at 0.6 μCi (0.29 μM total UTP). Reactions were initiated by the addition of enzyme, incubated at 30° C. for 60 min, and stopped by adding 25 μl of 50 mM EDTA containing SPA beads (4 μg/μl, Amersham RPNQ 0007). Plates were read on a Packard Top Count NXT after >1 hr incubation at room temperature.
Modified HCV NS5B RdRp enzyme assay. A modified enzyme assay was performed essentially as described for the standard enzyme assay except for the following: The biotinylated oligo dT12 primer was precaptured on streptavidin-coated SPA beads by mixing primer and beads in assay buffer and incubating at room temperature for one hour. Unbound primer was removed after centrifugation. The primer-bound beads were resuspended in 20 mM Hepes buffer, pH 7.5 and used in the assay at final concentrations of 20 nM primer and 0.67 μg/μl beads. Order of addition in the assay: enzyme (14 nM) was added to diluted compound followed by the addition of a mixture of template (0.2 nM), 3H-UTP (0.6 μCi, 0.29 μM), and primer-bound beads, to initiate the reaction; concentrations given are final. Reactions were allowed to proceed for 4 hours at 30° C.
IC50 values for compounds were determined using seven different [I]. […]

T1 sequence (Q9WMX2 2420-2992): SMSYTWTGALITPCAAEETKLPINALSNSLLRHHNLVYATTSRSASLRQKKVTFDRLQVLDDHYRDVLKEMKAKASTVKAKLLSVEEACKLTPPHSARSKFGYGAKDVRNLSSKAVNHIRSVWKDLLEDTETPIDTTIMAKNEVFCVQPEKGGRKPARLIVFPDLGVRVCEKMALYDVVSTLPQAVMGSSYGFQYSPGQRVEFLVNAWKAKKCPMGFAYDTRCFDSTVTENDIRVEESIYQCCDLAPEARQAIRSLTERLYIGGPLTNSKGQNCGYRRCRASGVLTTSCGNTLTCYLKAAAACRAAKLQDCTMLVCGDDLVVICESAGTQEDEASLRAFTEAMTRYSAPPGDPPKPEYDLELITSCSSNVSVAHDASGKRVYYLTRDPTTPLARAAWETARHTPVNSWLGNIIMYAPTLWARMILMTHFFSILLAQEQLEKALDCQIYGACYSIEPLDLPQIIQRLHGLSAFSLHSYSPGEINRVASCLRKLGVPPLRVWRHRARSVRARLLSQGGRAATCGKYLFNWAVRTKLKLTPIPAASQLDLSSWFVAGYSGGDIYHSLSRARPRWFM

| SMILES | EC50 ([1]; Hepatitis C virus) [µM] | IC50 [2] [µM] | EC50 [1] [µM] |
| --- | --- | --- | --- |
| CNC(=O)c1c(-c2ccc(F)cc2)nn2ccc(-c3cccc(C(=O)NC4(c5ccccc5)CCC4)c3)cc12 | 0.002 to 0.25 | 0.002 to 0.25 | – |
| CNC(=O)c1c(-c2ccc(F)cc2)nn2ccc(-c3cccc(C(=O)NC4(c5ccccc5)CC4)c3)cc12 | 0.002 to 0.25 | 0.002 to 0.25 | – |
| CNC(=O)c1c(-c2ccc(F)cc2)nn2cc(N(CCO)S(C)(=O)=O)c(-c3cc(C(=O)NC4(c5ccccc5)CC4)ccc3C)cc12 | – | 0.002 to 0.25 | – |
| CNC(=O)c1c(-c2ccc(F)cc2)nn2cc(N(CCO)S(C)(=O)=O)c(-c3cc(C(=O)NCC(C)C)ccc3Cl)cc12 | 0.25 to 1 | 0.002 to 0.25 | – |
| CNC(=O)c1c(-c2ccc(F)cc2)nn2cc(N(CCO)S(C)(=O)=O)c(C3CC3)cc12 | 1 to 10 | 0.002 to 0.25 | – |
| CNC(=O)c1c(-c2ccc(F)cc2)nn2cc(N(CCOC)S(C)(=O)=O)c(-c3cccc(C(=O)NC(C)(C)c4ccccc4)c3)cc12 | 0.002 to 0.25 | 0.002 to 0.25 | – |
| CNC(=O)c1c(-c2ccc(F)cc2)nn2ccc(-n3cc(C(=O)NC(C)(C)c4ccccc4)ccc3=O)cc12 | 0.25 to 1 | 0.002 to 0.25 | – |
| CNC(=O)c1c(-c2ccc(F)cc2)oc2ncc(-c3cccc(C(=O)NC(C)(C)c4ccccc4)c3)cc12 | 0.002 to 0.25 | 0.002 to 0.25 | – |
| CNC(=O)c1c(-c2ccc(F)cc2)nc2ccc(-c3cc(C(=O)NC(C)(C)c4ccccc4)ccc3OC)cn12 | 0.002 to 0.25 | 0.002 to 0.25 | – |
| CNC(=O)c1c(-c2ccc(F)cc2)nc2ccc(-c3cc(C(=O)NC4(c5ccccn5)CC4)ccc3C)cn12 | 0.002 to 0.25 | 0.002 to 0.25 | – |
| CNC(=O)c1c(-c2ccc(F)cc2)oc2ncc(-c3cccc(C(=O)NC4(c5ccccc5)CC4)c3)cc12 | 0.002 to 0.25 | 0.002 to 0.25 | – |
| CNC(=O)c1c(-c2ccc(F)cc2)nc2ccc(-c3cc(C(=O)NC(C)(C)c4ccccc4)ccc3Cl)cn12 | 0.002 to 0.25 | 0.002 to 0.25 | – |
| CNC(=O)c1c(-c2ccc(F)cc2)nc2ccc(-c3cc(C(=O)NC(C)(C)c4ccccc4)ccc3C)cn12 | 0.002 to 0.25 | 0.002 to 0.25 | – |
| CNC(=O)c1c(-c2ccc(F)cc2)nn2cc(NS(C)(=O)=O)c(-c3cccc(C(=O)NC(C)(C)c4ccccc4)c3)cc12 | 1 to 10 | 0.002 to 0.25 | – |
| CNC(=O)c1c(-c2ccc(F)cc2)nn2cc(N(CC3CC3)S(C)(=O)=O)c(-c3cccc(C(=O)NC(C)(C)c4ccccc4)c3)cc12 | 0.002 to 0.25 | 0.002 to 0.25 | – |
| CNC(=O)c1c(-c2ccc(F)cc2)nn2ccc(-c3cc(C(=O)NC(C)(C)C)ccc3OC)cc12 | 0.25 to 1 | 0.002 to 0.25 | – |
| CNC(=O)c1c(-c2ccc(F)cc2)oc2ncc(-c3cccc(C(=O)NC(C)(C)C)c3)cc12 | 0.002 to 0.25 | 0.002 to 0.25 | – |
| CNC(=O)c1c(-c2ccc(F)cc2)nc2ccc(-c3ccc(-c4cccnc4)c(C(=O)NCC(C)C)c3)cn12 | 0.25 to 1 | – | – |

| SMILES | EC50 ([1]; Hepatitis C virus) [µM] | IC50 [2] [µM] | EC50 [1] [µM] |
| --- | --- | --- | --- |
| CNC(=O)c1c(-c2ccc(F)cc2)nn2ccc(-c3cc(F)cc(C(=O)NC4(c5ccccc5)CC4)c3)c(F)c12 | > 10 | – | – |
| CNC(=O)c1c(-c2ccc(F)cc2)nn2ccc(-c3cc(F)cc(C(=O)NC4(c5ccccn5)CC4)c3)c(F)c12 | 1 to 10 | – | – |
| CNC(=O)c1c(-c2ccc(F)cc2)nn2ccc(-c3cc(C(=O)NC4(c5ccccn5)CC4)cc(F)c3C)c(F)c12 | 0.002 to 0.25 | – | – |
| CNC(=O)c1c(-c2ccc(F)cc2)nn2ccc(-c3cc(C(=O)NC4(c5nc(C)no5)CC4)cc(F)c3C)c(F)c12 | 0.002 to 0.25 | – | – |
| CNC(=O)c1c(-c2ccc(F)cc2)nn2ccc(-c3cc(C(=O)NC4(c5nnc(-c6ccccc6)[nH]5)CC4)c(OC)cc3C)c(F)c12 | 0.002 to 0.25 | – | – |
| CNC(=O)c1c(-c2ccc(F)cc2)nn2ccc(-c3cc(C(=O)NC4(c5ccccc5)CC4)c(OC)nc3C)c(F)c12 | 0.002 to 0.25 | – | – |
| CNC(=O)c1c(-c2ccc(F)cc2)nn2ccc(-c3cc(C(=O)NC4(c5ccccn5)CC4)c(OC)nc3C)c(F)c12 | 0.002 to 0.25 | – | – |
| CNC(=O)c1c(-c2ccc(F)cc2)nn2ccc(-c3cc(C(=O)NC4(c5ccccc5)CC4)c(OC(F)F)nc3C)c(F)c12 | 0.002 to 0.25 | – | – |
| CNC(=O)c1c(-c2ccc(F)cc2)nn2ccc(-c3cc(C(=O)NC4(c5ccccn5)CC4)c(OC(F)F)nc3C)c(F)c12 | 0.002 to 0.25 | – | – |
| CNC(=O)c1c(-c2ccc(F)cc2)nn2ccc(-c3cc(C(=O)NC4(c5ncccn5)CC4)c(OCC4CCOCC4)nc3C)c(F)c12 | 0.002 to 0.25 | – | – |
| CNC(=O)c1c(-c2ccc(F)cc2)nn2ccc(-c3cc(C(=O)NC4(c5ccccn5)CC4)c(OCC4CCOCC4)nc3C)c(F)c12 | 0.002 to 0.25 | – | – |
| CNC(=O)c1c(-c2ccc(F)cc2)nn2ccc(-c3cc(C(=O)NC4(c5cc(F)ccn5)CC4)c(OC)nc3C)c(F)c12 | 0.002 to 0.25 | – | – |
| CNC(=O)c1c(-c2ccc(F)cc2)nn2ccc(-c3cc(C(=O)NC4(c5cnccn5)CC4)c(OC)cc3C)c(F)c12 | 0.002 to 0.25 | – | – |
| CNC(=O)c1c(-c2ccc(F)cc2)nc2ccc(-c3ccc(-c4ccccc4Cl)c(C(=O)NCC(C)C)c3)cn12 [drawing 121] | 0.002 to 0.25 | – | – |
| CNC(=O)c1c(-c2ccc(F)cc2)nc2ccc(-c3cc(C(=O)NC4(c5ccccn5)CC4)c(OC)cc3Cl)cn12 [drawing 124] | 0.25 to 1 | – | – |
| CNC(=O)c1c(-c2ccc(F)cc2)nn2ccc(-c3cc(C(=O)NC4(c5ccccc5)CC4)cc(F)c3C)c(F)c12 [drawing 138] | 0.002 to 0.25 | – | – |
| CNC(=O)c1c(-c2ccc(F)cc2)nc2ccc(C3CC3C(=O)NC3(c4ccccn4)CC3)cn12 (stereo not drawn) [drawing 160] | – | – | > 10 |

Reference: patent US8293909B2, “Compounds for the treatment of hepatitis C” (Bristol-Myers Squibb Company, priority 2008, dated 2012)
